Source: patent US4743611A, “Naphthalenylsulfonylimidazolidinediones and their thioxo analogs useful as aldose reductase inhibitors” (American Home Products Corp., priority 1987, dated 1988)
Like-named read-outs stand apart in the source and are kept apart here.

What was measured:
aldose reductase [1] = target: T1, aldose reductase (Bos taurus, UniProt P16116); assay: in vitro inhibition of aldose reductase (enzyme from bovine lens, modified Hayman and Kinoshita procedure); assay type: biochemical; conditions: read-out: % inhibition in vitro
T1 construct: preparation of the enzyme from bovine lens; from tissue; host or cells: bovine lens
Excerpt: In the present case the procedure of Hayman and Kinoshita was modified in that the final chromatography step was omitted in the preparation of the enzyme from bovine lens.

aldose reductase [2] = target: T2, aldose reductase (Rattus norvegicus, UniProt P07943); assay: lowering of dulcitol accumulation in vivo in lens, sciatic nerve and diaphragm of galactosemic rats; parameters: species or system rat (Sprague-Dawley); conditions: for ED50: po, 96 h
T2 construct: diminish the accumulation of dulcitol in the lenses, sciatic nerves and diaphragm of rats fed galactose; from tissue; host or cells: lens, sciatic nerve and diaphragm of living male Sprague-Dawley rats
Excerpt: Such experiments are exemplified hereinbelow after the listing of the following general comments pertaining to these experiments:
(a) Four or more groups of six male rats, 50-70 g, Sprague-Dawley strain, were used. The first group, the control group, was fed a mixture of laboratory chow (rodent Laboratory Chow, Purina) and glucose at 20% (w/w %) concentration. The untreated galactosemic group was fed a similar diet in which galactose is substituted for glucose. The third group was fed a diet prepared by mixing a given amount of the test compound with the galactose containing diet. The concentration of galactose in the diet of the treated groups was the same as that for the untreated galactosemic group.
(b) After four days, the animals were killed by decapitation. The eyeballs were removed and punctured with a razor blade; the freed lenses were rolled gently on filter paper and weighed. The sciatic nerves were dissected as completely as possible and weighed. Both tissues when frozen can be kept up to two weeks before being analyzed for dulcitol.
Only two minor reagent changes were made: (a) The rinsing mixture was an aqueous 5% (w/v) trichloroacetic acid solution and (b) the stock solution was prepared by dissolving 25 mg of dulcitol in 100 ml of an aqueous trichloroacetic acid solution. [N.B.: For each experiment the average value found in the tissue from rats fed the glucose diet was subtracted from the individual values found in the corresponding tissue in galactose-fed rats to obtain the amount of polyol accumulated.]
The figures under L, N and D represent the percentage decrease of dulcitol accumulation in the tissues of the lens, sciatic nerve and diaphragm, respectively, for treated rats as compared to untreated rats.

[3] = diaphragm, 24 mg/kg/day in diet
[4] = diaphragm, 23 mg/kg/day in diet
[5] = rat, diaphragm, read-out: ED50, lowering dulcitol accumulation in vivo, D
[6] = rat, sciatic nerve, read-out: ED50, lowering dulcitol accumulation in vivo, N

Structure (SMILES): O=C1CN(S(=O)(=O)c2ccc3c(Br)cccc3c2)C(=S)N1 [Example 19, 1-[(5-Bromo-2-naphthalenyl)sulfonyl]-2-thioxo-4-imidazolidinone]
- inhibition at 10 µM (aldose reductase [1]; 10^-5): 13%
- inhibition at 1 µM (aldose reductase [1]; 10^-6): 9%

Structure (SMILES): O=C1CN(S(=O)(=O)c2cccc3ccc(Br)cc23)C(=S)N1 [Example 13, 1-[(7-bromo-1-naphthalenyl)sulfonyl]-2-thioxo-4-imidazolidinone]
- inhibition at 1 µM (aldose reductase [1]; 10^-6): 16%
- inhibition at 10 µM (aldose reductase [1]): 46%

Structure (SMILES): COc1ccc2c(C(=S)N(C)CC(=O)O)cccc2c1C(F)(F)F [tolrestat, N-[[6-methoxy-5-(trifluoromethyl)-1-naphthalenyl]thioxomethyl]-N-methylglycine, reference compound]
- % lowering dulcitol accumulation in vivo, D (aldose reductase [2]; rat, in vivo, 11 mg/kg/day): 89

Structure (SMILES): O=C1CN(S(=O)(=O)c2ccc(Br)c3ccccc23)C(=O)N1 [Example 4, 1-[(4-bromo-1-naphthalenyl)sulfonyl]-2,4-imidazolidinedione]
- inhibition at 10 µM (aldose reductase [1]; 10^-5): 92%
- inhibition at 1 µM (aldose reductase [1]; 10^-6): 81%
- inhibition at 0.1 µM (aldose reductase [1]; 10^-7): 31%
- % lowering dulcitol accumulation in vivo, D (aldose reductase [2]; [3]): 27%

Structure (SMILES): O=C1CN(S(=O)(=O)c2cccc3c(Cl)cccc23)C(=S)N1 [Example 15, 1-[(5-chloro-1-naphthalenyl)sulfonyl]-2-thioxo-4-imidazolidinone]
- inhibition at 10 µM (aldose reductase [1]; 10^-5): 43%
- inhibition at 1 µM (aldose reductase [1]; 10^-6): 14%

Structure (SMILES): O=C1CN(S(=O)(=O)c2cccc3ccccc23)C(=S)N1 [Example 9, 1-[(1-Naphthalenyl)sulfonyl]-2-thioxo-4-imidazolidinone]
- inhibition at 10 µM (aldose reductase [1]; 10^-5): 17%

Structure (SMILES): O=C1CN(S(=O)(=O)c2ccc3c(Br)cccc3c2)C(=O)N1 [Example 20, 1-[(5-Bromo-2-naphthalenyl)sulfonyl]-2,4-imidazolidinedione]
- inhibition at 10 µM (aldose reductase [1]; 10^-5): 89%
- inhibition at 1 µM (aldose reductase [1]; 10^-6): 77%
- inhibition at 0.1 µM (aldose reductase [1]; 10^-7): 24%
- % lowering dulcitol accumulation in vivo, L (aldose reductase [2]; lens, 24 mg/kg/day in diet): N.S.

Structure (SMILES): O=C1CN(S(=O)(=O)c2cccc3ccc(Br)cc23)C(=O)N1 [Example 14, 1-[(7-bromo-1-naphthalenyl)sulfonyl]-2,4-imidazolidinedione]
- inhibition at 0.1 µM (aldose reductase [1]; 10^-7): 36%
- inhibition at 1 µM (aldose reductase [1]): 79%
- inhibition at 10 µM (aldose reductase [1]): 93%
- % lowering dulcitol accumulation in vivo, D (aldose reductase [2]; [4]): 50%
- % lowering dulcitol accumulation in vivo, L (aldose reductase [2]; lens, 23 mg/kg/day in diet): 0%

Structure (SMILES): O=C1CN(S(=O)(=O)c2cccc3c(Br)cccc23)C(=S)N1 [Example 1, 1-[(5-Bromo-1-naphthalenyl)sulfonyl]-2-thioxo-4-imidazolidinone]
- inhibition at 10 µM (aldose reductase [1]; 10^-5): 67%
- inhibition at 1 µM (aldose reductase [1]; 10^-6): 17%
- % lowering dulcitol accumulation in vivo, D (aldose reductase [2]; [3]): 61%
- % lowering dulcitol accumulation in vivo, D (aldose reductase [2]; diaphragm, 48 mg/kg/day in diet, p < 0.01): 64%
- % lowering dulcitol accumulation in vivo, D (aldose reductase [2]; diaphragm, 109 mg/kg/day in diet): 86%
- % lowering dulcitol accumulation in vivo, L (aldose reductase [2]; lens, 24 mg/kg/day in diet): 24%
- % lowering dulcitol accumulation in vivo, L (aldose reductase [2]; lens, 48 mg/kg/day in diet, p < 0.01): 40%
- % lowering dulcitol accumulation in vivo, L (aldose reductase [2]; lens, 109 mg/kg/day in diet): 49%
- ED50 (aldose reductase [2]; [5]): 18 mg/kg
- ED50 (aldose reductase [2]; rat, lens, read-out: ED50, lowering dulcitol accumulation in vivo, L): 99 mg/kg
- ED50 (aldose reductase [2]; [6]): 22 mg/kg

Structure (SMILES): O=C1CN(S(=O)(=O)c2cccc3c(Br)cccc23)C(=O)N1 [Example 2, 1-[(5-Bromo-1-naphthalenyl)sulfonyl]-2,4-imidazolidinedione]
- inhibition at 10 µM (aldose reductase [1]; 10^-5): 93%
- inhibition at 1 µM (aldose reductase [1]; 10^-6): 89%
- inhibition at 0.1 µM (aldose reductase [1]; 10^-7): 45%
- results compared with tolrestat (in words) (aldose reductase [2]; 4.8 and 10.2 mg/kg/day versus tolrestat 4 and 11 mg/kg/day): comparable results
- % lowering dulcitol accumulation in vivo, D (aldose reductase [2]; diaphragm, 4.8 mg/kg/day in diet): 58%
- % lowering dulcitol accumulation in vivo, D (aldose reductase [2]; diaphragm, 10.2 mg/kg/day in diet): 72%
- % lowering dulcitol accumulation in vivo, D (aldose reductase [2]; diaphragm, 20.7 mg/kg/day in diet): 75%
- % lowering dulcitol accumulation in vivo, D (aldose reductase [2]; [4]): 81%
- % lowering dulcitol accumulation in vivo, D (aldose reductase [2]; diaphragm, 101 mg/kg/day in diet): 87%
- % lowering dulcitol accumulation in vivo, L (aldose reductase [2]; lens, 10.2 mg/kg/day in diet): 18%
- % lowering dulcitol accumulation in vivo, L (aldose reductase [2]; lens, 20.7 mg/kg/day in diet): 36%
- % lowering dulcitol accumulation in vivo, L (aldose reductase [2]; lens, 23 mg/kg/day in diet): 44%
- % lowering dulcitol accumulation in vivo, L (aldose reductase [2]; lens, 101 mg/kg/day in diet): 79%
- ED50 (aldose reductase [2]; [5]): 2 mg/kg
- ED50 (aldose reductase [2]; [6]): 8.1 mg/kg

Structure (SMILES): O=C1CN(S(=O)(=O)c2cccc3cc(Br)ccc23)C(=O)N1 [Example 12, 1-[(6-bromo-1-naphthalenyl)sulfonyl]-2,4-imidazolidinedione]
- inhibition at 10 µM (aldose reductase [1]; 10^-5): 89%
- inhibition at 1 µM (aldose reductase [1]; 10^-6): 70%
- inhibition at 0.1 µM (aldose reductase [1]; 10^-7): 23%
- % lowering dulcitol accumulation in vivo, D (aldose reductase [2]; [3]): 0%
- % lowering dulcitol accumulation in vivo, L (aldose reductase [2]; lens, 24 mg/kg/day in diet): 0%

Structure (SMILES): COc1ccc2c(S(=O)(=O)N3CC(=O)NC3=O)cccc2c1C(F)(F)F [Example 6, 1-[[6-Methoxy-5-(trifluoromethyl)-1-naphthalenyl]sulfonyl]-2,4-imidazolidinedione]
- inhibition at 1 µM (aldose reductase [1]; 10^-6): 84%
- inhibition at 0.1 µM (aldose reductase [1]; 10^-7): 43%
- inhibition at 10 µM (aldose reductase [1]): 86%
- % lowering dulcitol accumulation in vivo, D (aldose reductase [2]; diaphragm, 86 mg/kg/day in diet, p < 0.01): 87%
- % lowering dulcitol accumulation in vivo, L (aldose reductase [2]; lens, 86 mg/kg/day in diet, p < 0.01): 60%

Structure (SMILES): CN(C)c1cccc2c(S(=O)(=O)N3CC(=O)NC3=S)cccc12 [Example 7, 1-[[5-(dimethylamino)-1-naphthalenyl]sulfonyl]-2-thioxo-4-imidazolidinone]
- inhibition at 10 µM (aldose reductase [1]; 10^-5): 58%
- inhibition at 1 µM (aldose reductase [1]; 10^-6): 12%

Structure (SMILES): O=C1CN(S(=O)(=O)c2cccc3c(I)cccc23)C(=O)N1 [Example 18, 1-[(5-iodo-1-naphthalenyl)sulfonyl]-2,4-imidazolidinedione]
- inhibition at 0.1 µM (aldose reductase [1]; 10^-7): 59%
- % lowering dulcitol accumulation in vivo, D (aldose reductase [2]; [3]): 74.0%
- % lowering dulcitol accumulation in vivo, L (aldose reductase [2]; lens, 24 mg/kg/day in diet): 33%

Structure (SMILES): O=C1CN(S(=O)(=O)c2cccc3ccccc23)C(=O)N1 [Example 10, 1-[(1-Naphthalenyl)sulfonyl]-2,4-imidazolidinedione]
- inhibition at 10 µM (aldose reductase [1]; 10^-5): 89%
- inhibition at 1 µM (aldose reductase [1]; 10^-6): 59%
- inhibition at 0.1 µM (aldose reductase [1]; 10^-7): 14%
- % lowering dulcitol accumulation in vivo, D (aldose reductase [2]; [4]): 31%
- % lowering dulcitol accumulation in vivo, L (aldose reductase [2]; lens, 23 mg/kg/day in diet): 10%

Structure (SMILES): O=C1CN(S(=O)(=O)c2ccc(Br)c3ccccc23)C(=S)N1 [Example 3, 1-[(4-bromo-1-naphthalenyl)sulfonyl]-2-thioxo-4-imidazolidinone]
- inhibition at 10 µM (aldose reductase [1]; 10^-5): 53%
- inhibition at 1 µM (aldose reductase [1]; 10^-6): 15%

Structure (SMILES): O=C1CN(S(=O)(=O)c2cccc3c(Cl)cccc23)C(=O)N1 [Example 16, 1-[(5-chloro-1-naphthalenyl)sulfonyl]-2,4-imidazolidinedione]
- inhibition at 10 µM (aldose reductase [1]; 10^-5): 85%
- inhibition at 0.1 µM (aldose reductase [1]; 10^-7): 36%
- inhibition at 1 µM (aldose reductase [1]): 79%
- % lowering dulcitol accumulation in vivo, D (aldose reductase [2]; diaphragm, 25 mg/kg/day in diet): 82%
- % lowering dulcitol accumulation in vivo, L (aldose reductase [2]; lens, 25 mg/kg/day in diet): 44%

Structure (SMILES): CN(C)c1cccc2c(S(=O)(=O)N3CC(=O)NC3=O)cccc12 [Example 8, 1-[[5-(Dimethylamino)-1-naphthalenyl]sulfonyl]-2,4-imidazolidinedione]
- inhibition at 1 µM (aldose reductase [1]; 10^-6): 83%
- inhibition at 0.1 µM (aldose reductase [1]): 38%
- inhibition at 10 µM (aldose reductase [1]): 96%

Structure (SMILES): O=C1CN(S(=O)(=O)c2cccc3c(I)cccc23)C(=S)N1 [Example 17, 1-[(5-iodo-1-naphthalenyl)sulfonyl]-2-thioxo-4-imidazolidinone]
- inhibition at 10 µM (aldose reductase [1]; 10^-5): 58%
- inhibition at 1 µM (aldose reductase [1]; 10^-6): 24%
- % lowering dulcitol accumulation in vivo, D (aldose reductase [2]; diaphragm, 26 mg/kg/day in diet): 34.0%
- % lowering dulcitol accumulation in vivo, L (aldose reductase [2]; lens, 26 mg/kg/day in diet): 0.0%

Structure (SMILES): COc1ccc2c(S(=O)(=O)N3CC(=O)NC3=S)cccc2c1C(F)(F)F [Example 5, 1-[[6-methoxy-5-(trifluoromethyl)-1-naphthalenyl]sulfonyl]-2-thioxo-4-imidazolidinone]
- inhibition at 1 µM (aldose reductase [1]; 10^-6): 15%
- inhibition at 10 µM (aldose reductase [1]): 40%

Structure (SMILES): O=C1CN(S(=O)(=O)c2cccc3cc(Br)ccc23)C(=S)N1 [Example 11, 1-[(6-bromo-1-naphthalenyl)sulfonyl]-2-thioxo-4-imidazolidinone]
- inhibition at 10 µM (aldose reductase [1]; 10^-5): 10%
- inhibition at 1 µM (aldose reductase [1]; 10^-6): 9%
